From PMC7323874, “Vancomycin Resistance Is Overcome by Conjugation of Polycationic Peptides” (Angewandte Chemie (International Ed. in English), 2020)
Converted amounts (≈) assume the structure as drawn. Read-outs that look alike come from different tables or passages of the source.

Experiments:
[1] = test system: Staphylococcus aureus USA300 LAC; experiment: microbe, parasite or virus in culture; format: cell-based; settings: Staphylococcus aureus, MRSA / USA300, 24 h
Procedure: (§1) Antimicrobial testing – Microdilution
Antimicrobial testing was performed according to CLSI and EUCAST guidelines in microdilution.8-10 Therefore, all tested substances as well as controls were dissolved in water in different concentrations and serially diluted in MHB II (cation adjusted) on the 96-well plate. A logarithmic growing, overnight culture of the respective bacterial strain was used and adjusted to a McFarland corresponding to 1 × 10^8 cfu/ml. Afterwards the bacterial suspension was diluted to 1 ×10^6 cfu/ml and loaded on the 96-well polypropylene plates, resulting in a final bacterial concentration of 5 × 10^5 cfu/ml. After an incubation at 35 ± 1 °C for 18-20 hours (re-controlled after 24 hours) the MIC was determined as the lowest concentration without visible growth as described previously.11 For direct comparison of the tested substances, all results were calculated in mg/ml and mol/ml afterwards. […]
Resistance development study
(§2) Resistance development in S. aureus was determined by passaging bacteria in increasing amounts of vancomycin, FU002 or, as control, fusidic acid. In principle, tubes with twofold dilutions of the compounds in 1 ml Muller Hinton broth were inoculated 1:100 with bacterial suspension. The tubes were then incubated for 24 h at 37 °C under shaking. After each passage, the tube with the highest compound concentration showing bacterial growth was used to inoculate the tubes of the next passage (1:100). The tube with the lowest compound concentration showing no growth was defined as the passage MIC. Passaging was stopped after 8 passages.
For the validation of possible side effects provoked by the conjugates, the cytotoxic effect of the lead candidate FU002 on human cells was assessed in a colorimetric viability assay. Different human cell types were used including kidney and liver cell lines as well as freshly isolated peripheral blood cells. Cells were seeded into 96-well microtiter plates at 2 x 10^4 cells/well and cultured overnight (18-24 h) in a […]

[2] = test system: Staphylococcus aureus NCTC 10442; experiment: Blocking experiments with Nα,Nε-diacetyl-Lys-D-Ala-D-Ala in microdilution; format: cell-based; settings: at least 100-fold excess of Nα,Nε-Diacetyl-Lys-D-Ala-D-Ala, pre-incubation minimum 1 hour at room temperature
Procedure: as §1
Antimicrobial testing was performed according to CLSI and EUCAST guidelines in microdilution.8-10 Therefore, all tested substances as well as controls were dissolved in water in different concentrations and serially diluted in MHB II (cation adjusted) on the 96-well plate. A logarithmic growing, overnight culture of the respective bacterial strain was used and adjusted to a McFarland corresponding to 1 × 10^8 cfu/ml. Afterwards the bacterial suspension was diluted to 1 ×10^6 cfu/ml and loaded on the 96-well polypropylene plates, resulting in a final bacterial concentration of 5 × 10^5 cfu/ml. After an incubation at 35 ± 1 °C for 18-20 hours (re-controlled after 24 hours) the MIC was determined as the lowest concentration without visible growth as described previously.11 For direct comparison of the tested substances, all results were calculated in mg/ml and mol/ml afterwards.
as §2, with “For blocking experiments with NΑ,NΕ-DIACETYL-LYS-D-ALA-D-ALA the tested substances were incubated directly on the dilution plate with at least 100-fold excess of Nα,Nε-Diacetyl-Lys-D-Ala-D-Ala for a minimum of 1 hour at room temperature. Afterwards, the procedure was performed as described above. As further control substance, the glycopeptide antibiotic teicoplanin was evaluated. […] Resistance” for “Resistance”, “Passaging was stopped after 8 passages.” left out
For the validation of possible side effects provoked by the conjugates, the cytotoxic effect of the lead candidate FU002 on human cells was assessed in a colorimetric viability assay. […]

CC(=O)O[C@H]1C[C@@]2(C)[C@@H](C[C@@H](O)[C@H]3[C@@]4(C)CC[C@@H](O)[C@@H](C)[C@@H]4CC[C@@]32C)/C1=C(\CCC=C(C)C)C(=O)O [fusidic acid]
MIC ([1]; read-out: MIC after 8 passages): 64 µg/mL (≈ 124 µM) | MIC ([1]; read-out: initial MIC): 0.125 µg/mL (≈ 0.242 µM)

teicoplanin
effect of D-Ala-D-Ala binding motif on antibiotic activity [2]: suppresses the antibiotic activity
